Consider 15 compounds from patent publication US9227971B2, “Pyrazolo[1,5-a]pyrimidine compounds as mTOR inhibitors” (Merck Sharp & Dohme Corp., priority 2010, dated 2016).

Where two headings read alike, the source gives them in different places.

Assay [1] concerns phosphorylated 4E-BP1 Thr37/46 (p4E-BP1 Thr37/46), mTORC1 activity, PC3 cells. Put plainly: mTOR target engagement assay, immunofluorescent cell-based, p4E-BP1 Thr37/46 readout (mTORC1 activity). To be noted: read-out: p4E-BP1 Thr37/46 IC50. The method, boiled down: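 PTEN-mutant PC3 prostate cells were treated with serially diluted compound in 5% FBS F12 medium (0.25% DMSO) for ninety minutes at 37° C, glyoxal-fixed, then immunostained overnight at 4° C for p4E-BP1 Thr37/46 with an Alexa Fluor 488 secondary. IC50 came from four-parameter fits of fluorescence, DMSO-only wells defining 100%.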

Assay [2] relates to phosphorylated AKT Ser473 (pAKT S473), mTORC2 activity, PC3 cells. Put plainly: mTOR target engagement assay, immunofluorescent cell-based, pAKT S473 readout (mTORC2 activity). The method, boiled down:
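After blocking, cells were stained overnight at 4 °C with anti-pAKT S473 antibody, then a fluorescent secondary; inhibition was read as reduced fluorescence intensity.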

The mark [3] stands for this setting: Homo sapiens, PC-3, Table 3-1, PC3 cells.
[4] abbreviates: Homo sapiens, PC-3, Table 6-1, PC3 cells.
The mark [5] stands for this setting: Homo sapiens, PC-3, Table 7-8, PC3 cells.
[6] abbreviates: Homo sapiens, PC-3, PC3 cells, compound treatment ninety minutes at 37° C.

For `COc1ccc(-c2ccc(-c3cnn4c(N)c(S(C)(=O)=O)c([C@@H]5C[C@H]6CC[C@@H](C5)N6C(=O)CO)nc34)cn2)cc1` [Compound 3.36, 1-((1R,3s,5S)-3-(7-amino-3-(6-(4-methoxphenyl)pyridin-3-yl)-6-(methylsulfonyl)pyrazolo[1,5-a]pyrimidin-5-yl)-8-azabicyclo[3.2.1]octan-8-yl)-2-hydroxyethanone], the IC50 in assay [1] (setting [3]) and in assay [2] (setting [3]) was 1 to 100 nM each time.

As to `COCC(=O)N1[C@@H]2CC[C@H]1C[C@H](c1nc3c(-c4ccc(-c5ncc[nH]5)nc4)cnn3c(N)c1C(C)=O)C2` [Compound 6.16, 1-((1R,3s,5S)-3-(3-(6-(1H-imidazol-2-yl)pyridin-3-yl)-6-acetyl-7-aminopyrazolo[1,5-a]pyrimidin-5-yl)-8-azabicyclo[3.2.1]octan-8-yl)-2-methoxyethanone], the IC50 in assay [1] (setting [4]) and in assay [2] (setting [4]) was 1 to 100 nM each time.

For the compound `CC(=O)c1c([C@H]2CC3CC[C@H](C2)N3C(=O)c2nnc[nH]2)nc2c(-c3ccc(C(O)C(F)(F)F)nc3)cnn2c1N` (stereo partly drawn) [Compound 7.65, 1-(5-((1R,3s,5S)-8-(4H-1,2,4-triazole-3-carbonyl)-8-azabicyclo[3.2.1]octan-3-yl)-7-amino-3-(6-(2,2,2-trifluoro-1-hydroxyethyl)pyridin-3-yl)pyrazolo[1,5-a]pyrimidin-6-yl)ethanone], the IC50 lay in the range of 100 to 1000 nM in assay [1] (Homo sapiens, PC-3, PC3 cells) and 100 to 1000 nM in assay [2] (Homo sapiens, PC-3, PC3 cells).

For `CS(=O)(=O)c1c([C@@H]2C[C@H]3CC[C@@H](C2)N3C(=O)c2nnc[nH]2)nc2c(-c3ccc(-c4ncccc4F)nc3)cnn2c1N` [Compound 3.48, ((1R,3s,5S)-3-(7-amino-3-(3′-fluoro-2,2′-bipyridin-5-yl)-6-(methylsulfonyl)pyrazolo[1,5-a]pyrimidin-5-yl)-8-azabicyclo[3.2.1]octan-8-yl)(4H-1,2,4-triazol-3-yl)methanone], the IC50 in assay [1] (setting [3]) and in assay [2] (setting [3]) was 1 to 100 nM throughout.

Consider `CS(=O)(=O)c1c([C@@H]2C[C@H]3CC[C@@H](C2)N3C(=O)c2nnc[nH]2)nc2c(-c3ccc(OC4CCC4)nc3)cnn2c1N` [Compound 8.53, ((1R,3s,5S)-3-(7-amino-3-(6-cyclobutoxypyridin-3-yl)-6-(methylsulfonyl)pyrazolo[1,5-a]pyrimidin-5-yl)-8-azabicyclo[3.2.1]octan-8-yl)(4H-1,2,4-triazol-3-yl)methanone], for which the IC50 in assay [1] (Homo sapiens, PC-3, PC3 cells) fell in the range of 1000 to 10000 nM; in assay [2] (Homo sapiens, PC-3, PC3 cells) it was 1000 to 10000 nM.

Turning to `CS(=O)(=O)c1c([C@H]2CC3CC[C@H](C2)N3C(=O)NO)nc2c(-c3ccc(-c4ccccc4)nc3)cnn2c1N` [Compound 3.172, (1R,3s,5S)-3-(7-amino-6-(methylsulfonyl)-3-(6-phenylpyridin-3-yl)pyrazolo[1,5-a]pyrimidin-5-yl)-N-hydroxy-8-azabicyclo[3.2.1]octane-8-carboxamide], the figures for the IC50 in assay [1] (setting [3]) and in assay [2] (setting [3]) were 1 to 100 nM and 100 to 1000 nM, respectively.

With `CS(=O)(=O)c1c([C@@H]2C[C@H]3CC[C@@H](C2)N3C(=O)c2nnc[nH]2)nc2c(-c3ccc(C4(O)CCC4)nc3)cnn2c1N` [Compound 7.41, ((1R,3s,5S)-3-(7-amino-3-(6-(1-hydroxycyclobutyl)pyridin-3-yl)-6-(methylsulfonyl)pyrazolo [1,5-a]pyrimidin-5-yl)-8-azabicyclo[3.2.1]octan-8-yl)(4H-1,2,4-triazol-3-yl)methanone], the IC50 in assay [1] (setting [5]) and in assay [2] (setting [5]) was 1 to 100 nM in each case.

With `CS(=O)(=O)c1c([C@@H]2C[C@H]3CC[C@@H](C2)N3C(=O)c2nnc[nH]2)nc2c(-c3ccc(-c4nc5c(s4)CCC5)nc3)cnn2c1N` [Compound 3.193, ((1R,3s,5)S-3-(7-amino-3-(6-(5,6-dihydro-4H-cyclopenta[d]thiazol-2-yl)pyridin-3-yl)-6-(methylsulfonyl)pyrazolo[1,5-a]pyrimidin-5-yl)-8-azabicyclo[3.2.1]octan-8-yl)(4H-1,2,4-triazol-3-yl)methanone], the IC50 in assay [1] (setting [3]) and in assay [2] (setting [3]) was 100 to 1000 nM each time.

As for `CS(=O)(=O)c1c([C@@H]2C[C@H]3CC[C@@H](C2)N3C(=O)c2nnc[nH]2)nc2c(-c3cnn(-c4ccccc4)c3)cnn2c1N` [Compound 3.97, ((1R,3s,5S)-3-(7-amino-6-(methylsulfonyl)-3-(1-phenyl-1H-pyrazol-4-yl)pyrazolo[1,5-a]pyrimidin-5-yl)-8-azabicyclo[3.2.1]octan-8-yl)(4H-1,2,4-triazol-3-yl)methanone], the IC50 in assay [1] (setting [3]) and in assay [2] (setting [3]) was 1 to 100 nM throughout.

With `CC(=O)c1c([C@@H]2C[C@H]3CC[C@@H](C2)N3C(=O)c2nnc[nH]2)nc2c(-c3ccc(-c4cccc(F)c4)nc3)cnn2c1N` [Compound 1.1.103, 1-(5-((1R,3r,5S)-8-(4H-1,2,4-triazole-3-carbonyl)-8-azabicyclo[3.2.1]octan-3-yl)-7-amino-3-(6-(3-fluorophenyl)pyridin-3-yl)pyrazolo[1,5-a]pyrimidin-6-yl)ethanone], the IC50 in assay [1] (setting [6]) and in assay [2] (setting [6]) was 1 to 100 nM throughout.

On to `CC(=O)c1c([C@@H]2C[C@H]3CC[C@@H](C2)N3C(=O)CO)nc2c(-c3ccc(-c4cc(C)[nH]n4)nc3)cnn2c1N` [Compound 1.1.96, 1-((1R,3s,5S)-3-(6-acetyl-7-amino-3-(6-(5-methyl-1H-pyrazol-3-yl)pyridin-3-yl)pyrazolo[1,5-a]pyrimidin-5-yl)-8-azabicyclo[3.2.1]octan-8-yl)-2-hydroxyethanone], for which the IC50 in assay [1] (setting [6]) and in assay [2] (setting [6]) was over 10000 nM throughout.

Regarding `COc1cc(F)cc2cc(-c3cnn4c(N)c(C(C)=O)c([C@@H]5C[C@H]6CC[C@@H](C5)N6C(=O)c5nnc[nH]5)nc34)cnc12` [Compound 1.1.182, 1-(5-((1R,3r,5S)-8-(4H-1,2,4-triazole-3-carbonyl)-8-azabicyclo[3.2.1]octan-3-yl)-7-amino-3-(6-fluoro-8-methoxyquinolin-3-yl)pyrazolo[1,5-a]pyrimidin-6-yl)ethanone], the IC50 in assay [1] (setting [6]) and in assay [2] (setting [6]) was 1 to 100 nM throughout.

For the compound `CC(=O)c1c([C@@H]2C[C@H]3CC[C@@H](C2)N3C(=O)c2ccc[nH]2)nc2c(-c3ccc(-c4ccccc4)nc3)cnn2c1N` [Compound 1.1.43, 1-(5-((1R,3s,5S)-8-(1H-pyrrole-2-carbonyl)-8-azabicyclo[3.2.1]octan-3-yl)-7-amino-3-(6-phenylpyridin-3-yl)pyrazolo[1,5-a]pyrimidin-6-yl)ethanone], the IC50 in assay [1] (setting [6]) and in assay [2] (setting [6]) was 100 to 1000 nM in each case.

In the case of `CC(=O)N1[C@@H]2CC[C@H]1C[C@H](c1nc3c(-c4ccc(-c5ncc(C)s5)nc4)cnn3c(N)c1S(C)(=O)=O)C2` [Compound 3.182, 1-((1R,3s,5S)-3-(7-amino-6-(methylsulfonyl)-3-(6-(5-methylthiazol-2-yl)pyridin-3-yl)pyrazolo[1,5-a]pyrimidin-5-yl)-8-azabicyclo[3.2.1]octan-8-yl)ethanone], the IC50 was 100 to 1000 nM in assay [1] (Table 3-1, PC3 cells) and 100 to 1000 nM in assay [2] (Table 3-1, PC3 cells).

For `CCCS(=O)(=O)c1c([C@@H]2C[C@H]3CC[C@@H](C2)N3C(=O)c2nnc[nH]2)nc2c(-c3ccc(-c4ccccc4)nc3)cnn2c1N` [Compound 3.162, ((1R,3s,5S)-3-(7-amino-3-(6-phenylpyridin-3-yl)-6-(propylsulfonyl)pyrazolo[1,5-a]pyrimidin-5-yl)-8-azabicyclo[3.2.1]octan-8-yl)(4H-1,2,4-triazol-3-yl)methanone], the IC50 in assay [1] (setting [3]) and in assay [2] (setting [3]) was 100 to 1000 nM each time.
